Among the data in patent publication US11267800B2, “Cyclohexyl acid triazole azines as LPA antagonists” (BRISTOL-MYERS SQUIBB COMPANY, priority 2017, dated 2022) are IC50 values, retold here.

In this experiment the target is T1, human LPA1 (Homo sapiens, UniProt Q92633).
T1 construct: expressed in transfected cells; host or cells: Chinese hamster ovary (CHO) cells
Nature of the experiment: LPA1 functional antagonist assay (calcium flux). Type of experiment: cell-based. To be noted: CHO cells overexpressing human LPA1; inhibition of calcium flux induced by 10 nM LPA; read-out: hLPA1 IC50. The procedure: The effectiveness of compounds of the present invention as LPA1 inhibitors can be determined in an LPA1 functional antagonist assay as follows:
Chinese hamster ovary cells overexpressing human LPA1 were plated overnight (15,000 cells/well) in poly-D-lysine coated 384-well microplates (Greiner bio-one, Cat #781946) in DMEM/F12 medium (Gibco, Cat #11039). Following overnight culture, cells were loaded with calcium indicator dye (AAT Bioquest Inc, Cat #34601) for 30 minutes at 37° C. The cells were then equilibrated to room temperature for 30 minutes before the assay. Test compounds solubilized in DMSO were transferred to 384 well non-binding surface plates (Corning, Cat #3575) using the Labcyte Echo acoustic dispense and diluted with assay buffer [1×HBSS with calcium/magnesium (Gibco Cat #14025-092), 20 mM HEPES (Gibco Cat #15630-080) and 0.1% fatty acid free BSA (Sigma Cat #A9205)] to a final concentration of 0.5% DMSO. Diluted compounds were added to the cells by FDSS6000 (Hamamatsu) at final concentrations ranging from 0.08 nM to 5 μM. and were then incubated for 20 min at room temperature at which time LPA (Avanti Polar Lipids Cat #857130C) was added at final concentrations of 10 nM to stimulate the cells. The compound IC50 value was defined as the concentration of test compound which inhibited 50% of the calcium flux induced by LPA alone. IC50 values were determined by fitting data to a 4-parameter logistic equation (GraphPad Prism, San Diego Calif.).

As a reminder, the IC50 is the concentration needed to halve the response being measured.

The structures appear in SMILES notation.

T1 sequence (Q92633 whole entry): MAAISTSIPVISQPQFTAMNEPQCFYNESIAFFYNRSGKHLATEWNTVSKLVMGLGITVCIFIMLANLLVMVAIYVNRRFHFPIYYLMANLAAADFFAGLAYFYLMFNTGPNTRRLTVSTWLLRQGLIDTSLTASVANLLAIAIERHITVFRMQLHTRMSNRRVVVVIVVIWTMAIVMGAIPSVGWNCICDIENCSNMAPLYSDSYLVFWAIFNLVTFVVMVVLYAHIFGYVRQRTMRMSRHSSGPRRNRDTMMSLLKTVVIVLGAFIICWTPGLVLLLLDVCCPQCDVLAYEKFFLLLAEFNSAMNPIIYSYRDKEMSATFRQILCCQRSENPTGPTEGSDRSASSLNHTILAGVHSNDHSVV

Consider `Cc1nc(-c2nnn(C)c2CNc2nccc(Oc3c(F)cc(F)cc3F)n2)ccc1O[C@H]1CCC[C@H](C(=O)O)C1` [Example 100], for which the IC50 was 85 nM.

Turning to `Cc1nc(-c2nnn(C)c2CNc2nccc(Oc3ccc(F)c(F)c3)n2)ccc1O[C@H]1CCC[C@H](C(=O)O)C1` [Example 101], the IC50 came out at 28 nM.

With `Cc1nc(-c2nnn(C)c2CNc2nccc(OCCCF)n2)ccc1O[C@H]1CCC[C@H](C(=O)O)C1` [Example 102], the IC50 is 25 nM.

As for `Cc1nc(-c2nnn(C)c2CNc2nccc(Oc3cc(F)ccc3F)n2)ccc1O[C@H]1CCC[C@H](C(=O)O)C1` [Example 103], the IC50 worked out at 33 nM.

In the case of `CCCOc1ccnc(NCc2c(-c3ccc(O[C@H]4CCC[C@H](C(=O)O)C4)c(C)n3)nnn2C)n1` [Example 104], the IC50 stood at 27 nM.

As for `COc1cccc(Oc2ccnc(NCc3c(-c4ccc(O[C@H]5CCC[C@H](C(=O)O)C5)c(C)n4)nnn3C)n2)c1` [Example 105], the IC50 was 22 nM.

`Cc1ccc(Oc2ccnc(NCc3c(-c4ccc(O[C@H]5CCC[C@H](C(=O)O)C5)c(C)n4)nnn3C)n2)cc1` [Example 106]: the IC50 was 226 nM.

As to `COc1ccc(Oc2ccnc(NCc3c(-c4ccc(O[C@H]5CCC[C@H](C(=O)O)C5)c(C)n4)nnn3C)n2)cc1` [Example 107], the IC50 is 54 nM.

As for `Cc1cccc(Oc2ccnc(NCc3c(-c4ccc(O[C@H]5CCC[C@H](C(=O)O)C5)c(C)n4)nnn3C)n2)c1` [Example 108], the IC50 was found to be 152 nM.

`Cc1nc(-c2nnn(C)c2CNc2nccc(Oc3cccc(F)c3)n2)ccc1O[C@H]1CCC[C@H](C(=O)O)C1` [Example 109]: the IC50 was 17 nM.

`Cc1nc(-c2nnn(C)c2CNc2nccc(Oc3ccc(F)cc3)n2)ccc1O[C@H]1CCC[C@H](C(=O)O)C1` [Example 110]: the IC50 stood at 22 nM.

Turning to `Cc1nc(-c2nnn(C)c2CNc2nccc(-n3ccccc3=O)n2)ccc1O[C@H]1CCC[C@H](C(=O)O)C1` [Example 111], the IC50 is 763 nM.

For `Cc1nc(-c2nnn(C)c2CNc2nccc(Oc3ccc(Cl)cc3)n2)ccc1O[C@H]1CCC[C@H](C(=O)O)C1` [Example 112], the IC50 amounted to 45 nM.

As for `Cc1nc(-c2nnn(C)c2CNc2nccc(Oc3ccccn3)n2)ccc1O[C@H]1CCC[C@H](C(=O)O)C1` [Example 113], the IC50 amounted to 191 nM.

For the compound `Cc1nc(-c2nnn(C)c2CNc2nccc(Oc3cc(F)cc(F)c3)n2)ccc1O[C@H]1CCC[C@H](C(=O)O)C1` [Example 114], the IC50 was found to be 17 nM.

`Cc1nc(-c2nnn(C)c2CNc2nccc(Oc3ccccc3F)n2)ccc1O[C@H]1CCC[C@H](C(=O)O)C1` [Example 115]: the IC50 came to 25 nM.

For the compound `Cc1nc(-c2nnn(C)c2CNc2nccc(Oc3ccc(F)cc3F)n2)ccc1O[C@H]1CCC[C@H](C(=O)O)C1` [Example 116], the IC50 was 14 nM.

`Cc1nc(-c2nnn(C)c2CNc2nccc(OC3CC3)n2)ccc1O[C@H]1CCC[C@H](C(=O)O)C1` [Example 117]: the IC50 turned out to be 32 nM.

`Cc1nc(-c2nnn(C)c2CNc2ncccc2OC(C)C)ccc1O[C@H]1CCC[C@H](C(=O)O)C1` [Example 118]: the IC50 was 448 nM.

In the case of `Cc1nc(-c2nnn(C)c2CNc2ncccc2OC(F)(F)F)ccc1O[C@H]1CCC[C@H](C(=O)O)C1` [Example 119], the IC50 is 793 nM.

For `COc1cnc(NCc2c(-c3ccc(O[C@H]4CCC[C@H](C(=O)O)C4)c(C)n3)nnn2C)nc1C(C)(C)C` [Example 120], the IC50 came out at 344 nM.

Turning to `COc1cnc(NCc2c(-c3ccc(O[C@H]4CCC[C@H](C(=O)O)C4)c(C)n3)nnn2C)nc1C1CCC1` [Example 121], the IC50 amounted to 106 nM.

For the compound `COC(C)(C)c1ccnc(NCc2c(-c3ccc(O[C@H]4CCC[C@H](C(=O)O)C4)c(C)n3)nnn2C)n1` [Example 122], the IC50 amounted to 1130 nM.

Take `Cc1nc(-c2nnn(C)c2CNc2ncc(F)c(-c3ccccc3F)n2)ccc1O[C@H]1CCC[C@H](C(=O)O)C1` [Example 123]: the IC50 worked out at 79 nM.

For `COCC(C)(C)c1ccnc(NCc2c(-c3ccc(O[C@H]4CCC[C@H](C(=O)O)C4)c(C)n3)nnn2C)n1` [Example 124], the IC50 turned out to be 385 nM.

Take `Cc1nc(-c2nnn(C)c2CNc2cc(C(F)(F)F)nc(Cl)n2)ccc1O[C@H]1CCC[C@H](C(=O)O)C1` [Example 125]: the IC50 amounted to 167 nM.

Regarding `Cc1nc(-c2nnn(C)c2CNc2nccc(CC(C)C)n2)ccc1O[C@H]1CCC[C@H](C(=O)O)C1` [Example 126], the IC50 is 22 nM.

For `Cc1nc(-c2nnn(C)c2CNc2nccc(C(C)(C)CF)n2)ccc1O[C@H]1CCC[C@H](C(=O)O)C1` [Example 127], the IC50 was determined as 22 nM.

With `Cc1nc(-c2nnn(C)c2CNc2nccc(C(C)(C)CO)n2)ccc1O[C@H]1CCC[C@H](C(=O)O)C1` [Example 128], the IC50 was determined as 855 nM.

On to `CCc1cc(CC)nc(NCc2c(-c3ccc(O[C@H]4CCC[C@H](C(=O)O)C4)c(C)n3)nnn2C)n1` [Example 129], for which the IC50 turned out to be 102 nM.

Turning to `Cc1nc(-c2nnn(C)c2CNc2nccc(Oc3ccccc3)n2)cnc1O[C@H]1CCC[C@H](C(=O)O)C1` [Example 130], the IC50 is 105 nM.

For the compound `Cc1nc(-c2nnn(C)c2CNc2nccc(C(C)(C)F)n2)ccc1O[C@H]1CCC[C@H](C(=O)O)C1` [Example 132], the IC50 stood at 53 nM.

Turning to `Cc1nc(-c2nnn(C)c2CNc2nccc(C(C)(F)F)n2)ccc1O[C@H]1CCC[C@H](C(=O)O)C1` [Example 133], the IC50 was determined as 116 nM.

Take `CCC(F)(F)c1ccnc(NCc2c(-c3ccc(O[C@H]4CCC[C@H](C(=O)O)C4)c(C)n3)nnn2C)n1` [Example 134]: the IC50 turned out to be 28 nM.

Regarding `Cc1nc(-c2nnn(C)c2CNc2nccc(C(C)C)n2)cnc1O[C@H]1CCC[C@H](C(=O)O)C1` [Example 135], the IC50 turned out to be 296 nM.

For the compound `Cc1nc(-c2nnn(C)c2CNc2nccc(C(C)(C)C)n2)cnc1O[C@H]1CCC[C@H](C(=O)O)C1` [Example 136], the IC50 was determined as 86 nM.

Turning to `Cc1nc(-c2nnn(C)c2CNc2nccc(-c3ccccc3)n2)cnc1O[C@H]1CCC[C@H](C(=O)O)C1` [Example 137], the IC50 is 56 nM.

Regarding `Cc1nc(-c2nnn(C)c2CNc2nccc(-c3ccccc3F)n2)cnc1O[C@H]1CCC[C@H](C(=O)O)C1` [Example 138], the IC50 turned out to be 33 nM.

Turning to `Cn1nnc(-c2ccc(O[C@H]3CCC[C@H](C(=O)O)C3)cn2)c1CNc1nccc(OC2CC2)n1` [Example 139], the IC50 turned out to be 42 nM.

For `Cn1nnc(-c2ccc(O[C@H]3CCC[C@H](C(=O)O)C3)cn2)c1CNc1ccnc(OC2CC2)n1` [Example 140], the IC50 was 1370 nM.

For `CCOc1ccnc(NCc2c(-c3ccc(O[C@H]4CCC[C@H](C(=O)O)C4)cn3)nnn2C)n1` [Example 141], the IC50 was 22 nM.

Consider `COc1nc(NCc2c(-c3ccc(O[C@H]4CCC[C@H](C(=O)O)C4)c(C)n3)nnn2C)ncc1F` [Example 142], for which the IC50 worked out at 159 nM.

On to `Cc1nc(-c2nnn(C)c2CNc2ncc(F)c(-c3ccccc3)n2)ccc1O[C@H]1CCC[C@H](C(=O)O)C1` [Example 143], for which the IC50 was 26 nM.

Regarding `Cc1nc(-c2nnn(C)c2CNc2ncc(F)c(C(C)(C)C)n2)ccc1O[C@H]1CCC[C@H](C(=O)O)C1` [Example 144], the IC50 is 40 nM.

Turning to `Cc1cc(-c2ccccc2C#N)nc(NCc2c(-c3ccc(O[C@H]4CCC[C@H](C(=O)O)C4)c(C)n3)nnn2C)n1` [Example 145], the IC50 was 58 nM.

For the compound `Cc1nc(-c2nnn(C)c2CNc2ncc3c(n2)-c2ccccc2OC3)ccc1O[C@H]1CCC[C@H](C(=O)O)C1` [Example 147], the IC50 was 278 nM.

With `CCC1(c2ccnc(NCc3c(-c4ccc(O[C@H]5CCC[C@H](C(=O)O)C5)c(C)n4)nnn3C)n2)CC1` [Example 148], the IC50 turned out to be 70 nM.

Regarding `CCC(C)(C)c1ccnc(NCc2c(-c3ccc(O[C@H]4CCC[C@H](C(=O)O)C4)c(C)n3)nnn2C)n1` [Example 149], the IC50 was determined as 34 nM.

As to `Cc1nc(-c2nnn(C)c2CNc2cc(C(C)(C)C)ccn2)ccc1O[C@H]1CCC[C@H](C(=O)O)C1` [Example 150], the IC50 was found to be 84 nM.

Take `Cc1nc(-c2nnn(C)c2CNc2nccc(C3(C)CC3)n2)ccc1O[C@H]1CCC[C@H](C(=O)O)C1` [Example 151]: the IC50 worked out at 40 nM.

In the case of `Cc1nc(-c2nnn(C)c2CNc2cc(Oc3ccccc3)ccn2)ccc1O[C@H]1CCC[C@H](C(=O)O)C1` [Example 152], the IC50 was 67 nM.

As to `Cc1nc(-c2nnn(C)c2CNc2nccc(C(C)(C)O)n2)ccc1O[C@H]1CCC[C@H](C(=O)O)C1` [Example 153], the IC50 turned out to be 704 nM.

In the case of `Cc1nc(-c2nnn(C)c2CNc2nccc(C3CC3C)n2)ccc1O[C@H]1CCC[C@H](C(=O)O)C1` (some centres unmarked) [Example 154], the IC50 stood at 43 nM.

For `Cc1nc(-c2nnn(C)c2CNc2nccc(C34CC(C3)C4)n2)ccc1O[C@H]1CCC[C@H](C(=O)O)C1` [Example 155], the IC50 came to 96 nM.

As for `Cc1nc(-c2nnn(C)c2CNc2nccc(C3CC(F)C3)n2)ccc1O[C@H]1CCC[C@H](C(=O)O)C1` (some centres unmarked) [Example 156], the IC50 worked out at 32 nM.

Turning to `Cc1nc(-c2nnn(C)c2CNc2ncc(F)c(C(C)C)n2)ccc1O[C@H]1CCC[C@H](C(=O)O)C1` [Example 157], the IC50 came out at 40 nM.
